# Assay results reported in patent US20240190855A1 (Relay Therapeutics, Inc., priority 2021, published 2024).
# Molecular target: T1, CDK2/Cyclin E complex (Homo sapiens, UniProt P24941)
# T1 construct: purchased Eurofins 14-475
# Experiment: CDK2/Cyclin E fluorescence-based microfluidic mobility shift assay (CDK2 Biochemical Caliper Assay)
# Details: read-out: Biochemical CDK2/CyclinE Caliper IC50
# How it was run: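 Microfluidic mobility-shift readout after EDTA termination measured phosphorylation of fluorescent FL Peptide 18 (1.5 uM final) in a 20 hr room-temperature reaction. Compounds were tested at 11 concentrations (3-fold).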
row,SMILES,IC50
1,c1c(Nc2ncc3c(n2)C2CCC3C2)n[nH]c1C1CCCC1 (centres unmarked) [Example 794],1000 to 100000 nM
2,Cc1cc(C)n2ccnc(Nc3cc(C4CCCC4)[nH]n3)c12 [Example 795],1000 to 100000 nM
3,Cc1nc(Nc2cc(C3CCCC3)[nH]n2)cc2nncn12 [Example 797],1000 to 100000 nM
4,N#CCc1c[nH]c2nccc(Nc3cc(C4CCCC4)[nH]n3)c12 [Example 798],1000 to 100000 nM
5,Cc1cncc(Cl)c1Nc1cc(C2CCCC2)[nH]n1 [Example 799],1000 to 100000 nM
6,COC(=O)c1cc(Nc2cc(C3CCCC3)[nH]n2)cnn1 [Example 800],1000 to 100000 nM
7,Clc1cccc2nc(Nc3cc(C4CCCC4)[nH]n3)cnc12 [Example 801],1000 to 100000 nM
8,Cc1cc(Nc2cc(C3CCCC3)[nH]n2)n2nc(C)cc2n1 [Example 802],1000 to 100000 nM
9,COC(=O)c1cnc(C)cc1Nc1cc(C2CCCC2)[nH]n1 [Example 803],1000 to 100000 nM
10,COc1cnc2c(Nc3cc(C4CCCC4)[nH]n3)nccc2c1 [Example 804],1000 to 100000 nM
11,Cc1csc2nc(Nc3cc(C4CCCC4)[nH]n3)ncc12 [Example 805],1000 to 100000 nM
12,Cc1cc(C)nc(Nc2cc(C3CCCC3)[nH]n2)n1 [Example 806],1000 to 100000 nM
13,CCCc1cnnc(Nc2cc(C3CCCC3)[nH]n2)c1 [Example 807],1000 to 100000 nM
14,CCCCOc1ccc(Nc2cc(C3CCCC3)[nH]n2)nc1 [Example 808],1000 to 100000 nM
15,CC1Cc2nc(Nc3cc(C4CCCC4)[nH]n3)ncc2C(C)O1 (centres unmarked) [Example 809],1000 to 100000 nM
16,COc1cc(Nc2cc(C3CCCC3)[nH]n2)nc2sccc12 [Example 810],1000 to 100000 nM
17,COCCOc1ccnc(Nc2cc(C3CCCC3)[nH]n2)n1 [Example 811],1000 to 100000 nM
18,Cc1cc(Nc2cc(C3CCCC3)[nH]n2)c2c(F)cccc2n1 [Example 812],1000 to 100000 nM
19,Oc1ccc2ccnc(Nc3cc(C4CCCC4)[nH]n3)c2c1 [Example 813],1000 to 100000 nM
20,CC(C)c1cc(Nc2cc(C3CCCC3)[nH]n2)n2ncnc2n1 [Example 817],1000 to 100000 nM
21,Cc1[nH]nc2nccc(Nc3cc(C4CCCC4)[nH]n3)c12 [Example 827],1000 to 100000 nM
22,O=C1COc2ncnc(Nc3cc(C4CCCC4)[nH]n3)c2N1 [Example 831],1000 to 100000 nM
23,Cc1cn2nc(Nc3cc(C4CCCC4)[nH]n3)cc(C)c2n1 [Example 832],1000 to 100000 nM
24,c1cc(Nc2cc(C3CCCC3)[nH]n2)n2ccnc2n1 [Example 837],1000 to 100000 nM
25,Cc1nc(Nc2cc(C3CCCC3)[nH]n2)c2sccc2n1 [Example 839],1000 to 100000 nM
26,O=c1ccc2nc(Nc3cc(C4CCCC4)[nH]n3)ccc2[nH]1 [Example 849],1000 to 100000 nM
27,Clc1ccn2c(Nc3cc(C4CCCC4)[nH]n3)nnc2c1 [Example 850],1000 to 100000 nM
28,Cc1nc(Nc2cc(C3CCCC3)[nH]n2)cc(-c2ccco2)n1 [Example 853],1000 to 100000 nM

row,SMILES,IC50
1,Cc1cc(C(F)(F)F)c(Nc2cc(C3CCCC3)[nH]n2)nn1 [Example 855],1000 to 100000 nM
2,Cc1cnnc(Nc2cc(C3CCCC3)[nH]n2)c1C(=O)O [Example 856],1000 to 100000 nM
3,CS(=O)(=O)N1CCC(Nc2cc(C3CCCC3)[nH]n2)CC1 [Example 857],1000 to 100000 nM
4,Cc1cc2ccccc2c(Nc2cc(C3CCCC3)[nH]n2)n1 [Example 858],1000 to 100000 nM
5,Cc1cc2ncnc(Nc3cc(C4CCCC4)[nH]n3)c2[nH]1 [Example 859],1000 to 100000 nM
6,Fc1cnc(Nc2cc(C3CCCC3)[nH]n2)c2ccccc12 [Example 860],1000 to 100000 nM
7,c1cc2c(Nc3cc(C4CCCC4)[nH]n3)ncnn2c1 [Example 861],1000 to 100000 nM
8,Cc1cnc(Nc2cc(C3CCCC3)[nH]n2)c(C)n1 [Example 862],1000 to 100000 nM
9,Cc1c(F)c(Nc2cc(C3CCCC3)[nH]n2)nc2ccccc12 [Example 863],1000 to 100000 nM
10,CC(C)c1nc(Nc2cc(C3CCCC3)[nH]n2)c2cc[nH]c2n1 [Example 864],250 to 1000 nM
11,COc1cnc2ncnc(Nc3cc(C4CCCC4)[nH]n3)c2c1 [Example 865],1000 to 100000 nM
12,Cc1c(Nc2cc(C3CCCC3)[nH]n2)nn2cnnc2c1C [Example 866],1000 to 100000 nM
13,c1cc2c(nc1Nc1cc(C3CCCC3)[nH]n1)CCOC2 [Example 867],1000 to 100000 nM
14,COc1cccc2ccc(Nc3cc(C4CCCC4)[nH]n3)nc12 [Example 868],1000 to 100000 nM
15,c1cn2nc3c(c2c(Nc2cc(C4CCCC4)[nH]n2)n1)CCC3 [Example 869],1000 to 100000 nM
16,c1cn2nc(C3CC3)cc2c(Nc2cc(C3CCCC3)[nH]n2)n1 [Example 870],1000 to 100000 nM
17,c1ccc(-c2ncnc(Nc3cc(C4CCCC4)[nH]n3)n2)cc1 [Example 871],1000 to 100000 nM
18,Cc1nc(Nc2cc(C3CCCC3)[nH]n2)c(C#N)c2c1CCC2 [Example 872],1000 to 100000 nM
19,O=c1cc(Nc2cc(C3CCCC3)[nH]n2)c2ncccc2[nH]1 [Example 873],1000 to 100000 nM
20,Cc1cc(C(=O)O)c(Nc2cc(C3CCCC3)[nH]n2)nc1C [Example 874],1000 to 100000 nM
21,CCc1c(C)nc2ncnn2c1Nc1cc(C2CCCC2)[nH]n1 [Example 875],1000 to 100000 nM
22,Oc1cc(Nc2cc(C3CCCC3)[nH]n2)ncn1 [Example 876],1000 to 100000 nM
23,c1cc2nc(Nc3cc(C4CCCC4)[nH]n3)ccn2n1 [Example 877],250 to 1000 nM
24,COc1ccc2cnnc(Nc3cc(C4CCCC4)[nH]n3)c2c1 [Example 878],1000 to 100000 nM
25,CC1(NC(=O)O[C@H]2CO[C@H](c3cc(Nc4nccc5nc(C(F)(F)F)cn45)n[nH]3)C2)CC1 [Example 898],250 to 1000 nM
26,Cn1nc(CO)cc1C(=O)Nc1cc([C@H]2C[C@@H](OC(=O)NC3(C)CC3)CO2)[nH]n1 [Example 902],250 to 1000 nM
27,COCc1cn2c(Nc3cc([C@@H]4C[C@@H](OC(=O)NC5(C)CC5)CO4)[nH]n3)nccc2n1 [Example 904],1000 to 100000 nM

# Further lines, results first:
row,IC50,SMILES
1,≤ 100 nM,CC1(C)NC(=O)c2ccc(Nc3cc(C4CCCC4)[nH]n3)nc21 [Example 796]
2,250 to 1000 nM,Cc1cn2nccc2c(Nc2cc(C3CCCC3)[nH]n2)n1 [Example 822]
3,100 to 250 nM,OCCOc1cncc(Nc2cc(C3CCCC3)[nH]n2)n1 [Example 842]
4,≤ 100 nM,Cn1nc(COC(F)(F)F)cc1C(=O)Nc1cc([C@H]2C[C@@H](OC(=O)NC(C)(C)C#N)CO2)[nH]n1 [Example 879]
5,≤ 100 nM,COCc1cc(C(=O)Nc2cc([C@H]3C[C@@H](OC(=O)NC4(C)CC4)CO3)[nH]n2)n(C)n1 [Example 880]
6,≤ 100 nM,Cn1nc(OCC(F)(F)F)cc1C(=O)Nc1cc([C@H]2C[C@@H](OC(=O)NC34CC(C3)C4)CO2)[nH]n1 [Example 881]
7,≤ 100 nM,Cn1nc(OC(F)(F)Cl)cc1C(=O)Nc1cc([C@H]2C[C@@H](OC(=O)NC3(C)CC3)CO2)[nH]n1 [Example 882]
8,≤ 100 nM,Cn1nc(C=O)cc1C(=O)Nc1cc([C@H]2C[C@@H](OC(=O)NC3(C)CC3)CO2)[nH]n1 [Example 883]
9,≤ 100 nM,Cn1nc(COC(F)(F)F)cc1C(=O)Nc1cc([C@H]2C[C@@H](OC(=O)NC34C5C6C7C5C3C7C64)CO2)[nH]n1 (some centres unmarked) [Example 884]
10,≤ 100 nM,COCC1(NC(=O)O[C@H]2CO[C@@H](c3cc(NC(=O)c4cc(COC(F)(F)F)nn4C)n[nH]3)C2)CC1 [Example 885]
11,≤ 100 nM,CC1(NC(=O)O[C@H]2CO[C@@H](c3cc(NC(=O)c4cnn(CCOC(F)(F)F)c4)n[nH]3)C2)CC1 [Example 886]
12,≤ 100 nM,Cn1nc(OCC(F)F)cc1C(=O)Nc1cc([C@H]2C[C@@H](OC(=O)NC34CC(C3)C4)CO2)n[nH]1 [Example 887]
13,≤ 100 nM,Cn1nc(COC(F)(F)F)cc1C(=O)Nc1cc([C@H]2C[C@@H](OC(=O)NC3(C)COC3)CO2)[nH]n1 [Example 888]
14,≤ 100 nM,Cn1nc(COC(F)(F)F)cc1C(=O)Nc1cc([C@@H]2C[C@H](OC(=O)NC3(C)COC3)CO2)[nH]n1 [Example 893]
15,≤ 100 nM,COCC1(NC(=O)O[C@@H]2CO[C@H](c3cc(NC(=O)c4cc(COC(F)(F)F)nn4C)n[nH]3)C2)CC1 [Example 894]
16,≤ 100 nM,COCc1cc(C(=O)Nc2cc([C@H]3C[C@@H](OC(=O)NC4(C)CC4)CO3)[nH]n2)n(C(F)(F)F)n1 [Example 895]
17,≤ 100 nM,COCc1cc(C(=O)Nc2cc([C@H]3C[C@@H](Oc4[nH]ncc4C(C)C)CO3)[nH]n2)n(C)n1 [Example 896]
18,≤ 100 nM,CC1(NC(=O)O[C@H]2CO[C@@H](c3cc(Nc4nccn5nc(COC(F)(F)F)cc45)n[nH]3)C2)CC1 [Example 897]
19,≤ 100 nM,CC1(NC(=O)O[C@H]2CO[C@@H](c3cc(Nc4nccc5nc(C(F)(F)F)cn45)n[nH]3)C2)CC1 [Example 901]
20,≤ 100 nM,COCc1cn2c(Nc3cc([C@H]4C[C@@H](OC(=O)NC5(C)CC5)CO4)[nH]n3)nccc2n1 [Example 906]
21,≤ 100 nM,Cn1nc(OCC(F)F)cc1C(=O)Nc1cc([C@@H]2C[C@H](OC(=O)NC34CC(C3)C4)CO2)[nH]n1 [Example 907]
22,≤ 100 nM,Cn1nc(OCC(F)(F)F)cc1C(=O)Nc1cc([C@@H]2C[C@H](OC(=O)NC34CC(C3)C4)CO2)[nH]n1 [Example 908]
23,≤ 100 nM,C[C@@H](NC(=O)O[C@@H]1CO[C@H](c2cc(NC(=O)c3cc(OCC(F)F)nn3C)n[nH]2)C1)C1CC1 [Example 909]
24,≤ 100 nM,C[C@@H](NC(=O)O[C@@H]1CO[C@H](c2cc(NC(=O)c3cc(OCC(F)(F)F)nn3C)n[nH]2)C1)C1CC1 [Example 910]
25,≤ 100 nM,COC12CC(NC(=O)O[C@@H]3CO[C@H](c4cc(NC(=O)c5cc(COC(F)(F)F)nn5C)n[nH]4)C3)(C1)C2 [Example 911]
26,≤ 100 nM,Cn1nc(COC(F)(F)F)cc1C(=O)Nc1cc([C@@H]2C[C@H](OC(=O)NC34CC(C#N)(C3)C4)CO2)[nH]n1 [Example 912]
27,≤ 100 nM,COC12CC(NC(=O)O[C@H]3CO[C@@H](c4cc(NC(=O)c5cc(COC(F)(F)F)nn5C)n[nH]4)C3)(C1)C2 [Example 913]
28,≤ 100 nM,Cn1nc(COC(F)(F)F)cc1C(=O)Nc1cc([C@H]2C[C@@H](OC(=O)NC34CC(C#N)(C3)C4)CO2)[nH]n1 [Example 914]
